Assays:
Ca2+ influx in HMVEC-d = assay: Intracellular Ca2+ release; assay type: cell-based, Human
Procedure: For detaching cells, serum-starved HMVEC-d were incubated with 4 ml of collagenase solution (0.2 mg/ml collagenase, 0.2 mg/ml soybean trypsin inhibitor, 1 mg/ml BSA, and 2 mM EDTA in PBS) at 37° C. for 30 minutes. Cell pellets were washed with 2 ml of Ca^2+ buffer (5 mM KCl, 140 mM NaCl, 1 mM CaCl2, 1 mM MgCl2, 5.6 mM glucose, 0.1% BSA, 0.25 mM sulfinpyrazone, and 10 mM HEPEs, pH 7.5) and then resuspended in 2 ml of the same buffer containing 5 ng/ml TNP-470. The cells were incubated at 37° C. for 2 hours in suspension. During the last 30 minutes of incubation, 1 μg/ml Fura-2-AM Fura 2-AM (acetoxymethyl ester derivative of Fura 2) and 0.02% pluronic F-127 were added to the suspension. Cells (106) were collected and resuspended in 2 ml Ca^2+ buffer for VPF/VEGF (10 ng/ml), PAF (20 nM), or histamine ([…]) stimulation. Intracellular Ca^2+ concentrations were measured with the DeltaScan Illumination System (Photon Technology International Inc.) using Felix software, while rocking the tubes.

[1] = test system: U87 glioblastoma tumor blood vessel permeability; assay: Miles assay on tumor-bearing mice (Example 3), U87; set-up: species or system SCID mice; details: mouse, in vivo
Procedure: Female SCID mice ( 8 weeks, 20 g) were inoculated s.c. with 5×10^6 viable U87 glioblastoma cells or viable A2058 human melanoma cells or BXPC3 pancreas adenocarcinoma cells. Female nu/nu mice were inoculated with MCF-7 or MDA-MB-231 breast carcinoma cells in the mammary fat pad. C57B1/6J were inoculated with LLC. […] blue dye was then injected i.v. and extravasation of dye assessed as above. Also, blood was withdrawn to measure VPF/VEGF levels in plasma and in tumors (n=5 from each group). Tumors (n=5 per group) were dissected, weighed and cut in half. Half of the tumor was placed in formalin and half was analyzed for VPF/VEGF protein by ELISA (see below). Formalin fixed tumors were processed for sectioning and staining with H & E, CD31, smooth muscle actin (SMA) and proliferating cell nuclear antigen (PCNA) according to the manufacturers' instructions.

[2] = test system: IL-2-induced pulmonary edema; assay: IL-2 associated pulmonary edema; assay type: in vivo, C57B1/6J male mice
Procedure: C57B1/6J male mice were injected with TNP-470 (30 mg/kg daily) or saline subcutaneously (s.c.) for three days. Then mice were injected with IL-2 (1.2×106 units/100 μl) or saline intraperitoneally (i.p.) 3 times a day for 5 days. At termination mice were euthanized and lungs were dissected, weighed, fixed and processed for H & E staining.

[3] = test system: vesiculo-vacuolar organelles and inter-endothelial junctions; assay: Electron microscopy of skin venules with ferritin tracer; assay type: in vivo, SCID mice; details: uninjected skin or skin injected with buffer
Procedure: SCID mice were treated for three days with TNP-470 (30 mg/kg) or saline, following which anionic Ferritin tracer was injected i.v. into mice and 50 μl of human VEGF165 (1 ng/μl), or 50 μl of PBS were injected intradermally into pre-shaved flank skin. After 15 min, animals were euthanized by cervical dislocation. Skin test and control sites were excised and fixed by immersion for 4 hours in freshly prepared 2.0% paraformaldehyde-2.5% glutaraldehyde-0.025% calcium chloride in 0.1 M sodium cacodylate buffer, pH 7.4. Tissues were postfixed for 2 h in 1.5% sym-collidine-buffered osmium tetroxide, stained en bloc with uranyl acetate, dehydrated in a graded series of alcohols, and embedded in Spurr resin as previously described (Dvorak et al., 1996; Feng et al., 1996). Thin sections were then cut, collected on carbon-Formvar-coated single slot grids, and viewed in an electron microscope (CM10; Philips, Eindhoven, The Netherlands).

chick aortic rings = assay: Chick aortic ring assay; assay type: cell-based
Procedure: Aortic arches were dissected from day-14 chick embryos and cut into cross-sectional fragments, everted to expose the endothelium, and explanted in Matrigel. When cultured in serum-free MCDB-131 medium, endothelial cells outgrow and three-dimensional vascular channel formation occurred within […]. Free and conjugated TNP-470 were added to the culture.

RhoA = RhoA activation assay; assay type: cell-based, Human; details: HMVEC-d
Procedure: • pGST-TRBD bacteria were grown and induced with isopropyl-thiogalactoside. The bacterial suspensions were divided into 50 ml aliquots and then harvested and frozen at −80° C. To prepare the GST-TRBD beads, each aliquot of frozen bacteria was resuspended in 2 ml of cold PBS, and then 20 μl of 1 M dithiothreitol (DTT), 20 μl of 0.2 M PMSF, and 40 μl of 50 mg/ml lysozyme were added. The sample was incubated on ice for 30 minutes. Next, 225 μL of 10% Triton X-100, 22.5 μL of IM MgCl2, 22.5 μl of 2000 KU/ml DNAse were added and the sample was incubated on ice for another 30 min. The supernatant was collected and incubated with 100 μl glutathione-coupled Sepharose 4B beads (Pharmacia Biotech) at 4° C. for 45 minutes. The beads were then washed with bead washing buffer (PBS with 10 mM DTT and 1% Triton X-100) and resuspended in the same buffer to give a 50% bead slurry.
Meanwhile, 24 hours serum-starved HMVEC-d cells were treated with 5 ng/ml TNP-470 at 37° C. for 2 hours, and then stimulated with 10 ng/ml of VEGF, PAF (10 nM), or histamine ([…]) for 5 minutes. Stimulation was stopped by adding cold PBS. Cells were lysed with lysis buffer (150 mM NaCl, 0.8 mM MgCl2, 5 mM EGTA, 1% IGEPAL, 50 mM HEPES, pH 7.5, 1 mM PMSF, 10 μg/ml leupeptin, and 10 μg/ml aprotinin). The supernatant was isolated and incubated with 50 μl of GST-TRBD beads at 4° C. for 45 minutes. Protein bound to beads was washed with AP wash buffer (50 mM Tris-HCl, pH 7.2, 1% Triton X-100, 150 mM NaCl, 10 mM MgCl2, 1 mM PMSF, 10 μg/ml leupeptin, and 10 μg/ml aprotinin) and analyzed by SDS-PAGE with an antibody against RhoA (Santa Cruz Biotechnology, CA).

Water solubility = assay type: physicochemical
Procedure: To evaluate the biological activity of HPMA-TNP-470, the following assays were performed: […]

CO[C@@H]1[C@H](OC(=O)NC(=O)CCl)CC[C@]2(CO2)[C@H]1[C@@]1(C)O[C@@H]1CC=C(C)C [TNP-470]
Ca2+ influx induced by PAF (Ca2+ influx in HMVEC-d): decreased | Ca2+ influx induced by VPF/VEGF (Ca2+ influx in HMVEC-d): decreased | Ca2+ influx induced by histamine (Ca2+ influx in HMVEC-d): decreased | Evan's blue extravasation into U87 glioblastomas [1]: did not inhibit | total body weight ([2]; 3 days treatment): did not affect total body weight | lung pathological features (congestion, edema, fibrin deposition, mononuclear infiltrate) ([2]; IL-2 treated mice): greatly reduced | lung weight ([2]; mice treated with both IL-2 and TNP-470): 170.2 ± 10.1 mg | extravasation of circulating ferritin via VVOs [3]: reduced | concentration showing efficacy (reduced number and length of vascular sprouts) (chick aortic rings): 50 pg/mL | concentration that completely prevented outgrowth (chick aortic rings): 100 pg/mL | PAF-induced RhoA activation (RhoA): inhibited | VPF/VEGF-induced RhoA activation (RhoA): significantly suppressed | histamine-induced RhoA activation (RhoA): inhibited | water solubility (Water solubility): not water-soluble

Reference: patent US20050203013A1, “Methods for inhibiting vascular permeability” (priority 2002, published 2005)
